For five molecules, Ki results are on record in BindingDB's records for PubMed 9353393 (Torrey Pines Institute For Molecular Studies, 1997).

Structures are written as SMILES. Residues, ends and D or L forms follow the SMILES beside them.

In the experiment the target is Nociceptin receptor (Mus musculus, UniProt P35377).
Chain of Nociceptin receptor (P35377 whole entry): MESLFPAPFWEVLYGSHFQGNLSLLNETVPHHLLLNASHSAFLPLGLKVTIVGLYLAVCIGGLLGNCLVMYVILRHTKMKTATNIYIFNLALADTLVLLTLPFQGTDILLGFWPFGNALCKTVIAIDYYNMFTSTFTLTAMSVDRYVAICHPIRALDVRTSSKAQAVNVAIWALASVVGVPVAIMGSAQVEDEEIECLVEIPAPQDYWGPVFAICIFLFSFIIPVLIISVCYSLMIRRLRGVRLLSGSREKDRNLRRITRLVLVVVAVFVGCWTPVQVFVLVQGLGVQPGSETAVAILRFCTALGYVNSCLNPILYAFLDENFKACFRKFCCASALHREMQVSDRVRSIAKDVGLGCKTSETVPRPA
In general, Ki refers to a measure of affinity in units of concentration, obtained from inhibition or displacement. Higher therefore signals lower affinity. `CC(=O)N[C@@H](CCCNC(=N)N)C(=O)N[C@@H](Cc1ccc(O)cc1)C(=O)N[C@@H](Cc1ccc(O)cc1)C(=O)N[C@@H](CCCCN)C(=O)N[C@@H](Cc1c[nH]c2ccccc12)C(=O)N[C@@H](CCCN=C(N)N)C(N)=O` [Ac-RYYKWR-NH2] (Ac-RYYKWR-NH2) displayed an inhibitory constant (Ki) of 1470 pM.

For the molecule `CC(=O)N[C@@H](CCCNC(=N)N)C(=O)N[C@@H](Cc1ccc(O)cc1)C(=O)N[C@@H](Cc1ccc(O)cc1)C(=O)N[C@@H](CCCNC(=N)N)C(=O)N[C@@H](Cc1c[nH]c2ccccc12)C(=O)N[C@@H](CCCN=C(N)N)C(N)=O` [Ac-RYYRWR-NH2] (Ac-RYYRWR-NH2), the inhibition constant Ki turned out to be 600 pM. The molecule `CC(=O)N[C@@H](CCCNC(=N)N)C(=O)N[C@@H](Cc1ccc(O)cc1)C(=O)N[C@@H](Cc1ccc(O)cc1)C(=O)N[C@@H](CCCNC(=N)N)C(=O)N[C@@H](Cc1c[nH]c2ccccc12)C(=O)N[C@@H](CCCCN)C(N)=O` [CAS_200959-47-3] (Ac-RYYRWK-NH2) registered a Ki of 710 pM. This Ki and that of the molecule before are within 1.5-fold of each other. To `CC[C@H](C)[C@H](NC(=O)[C@H](CCCN=C(N)N)NC(=O)[C@H](Cc1ccc(O)cc1)NC(=O)[C@H](Cc1ccc(O)cc1)NC(=O)[C@H](CCCN=C(N)N)NC(C)=O)C(=O)N[C@@H](CCCCN)C(N)=O` [CAS_200959-48-4] belongs 1500 pM; to `CC(C)C[C@H](NC(=O)[C@H](CCCCN)NC(=O)[C@H](CCCN=C(N)N)NC(=O)[C@H](C)NC(=O)[C@H](CO)NC(=O)[C@H](CCCCN)NC(=O)[C@H](CCCN=C(N)N)NC(=O)[C@H](C)NC(=O)CNC(=O)[C@@H](NC(=O)[C@H](Cc1ccccc1)NC(=O)CNC(=O)CNC(=O)[C@@H](N)Cc1ccccc1)[C@@H](C)O)C(=O)N[C@@H](C)C(=O)N[C@@H](CC(N)=O)C(=O)N[C@@H](CCC(N)=O)C(=O)O` [OFQ 1-17], 430 pM.
